{"source": "patent US20190169134A1", "about": "“NOVEL CLASS OF QUINOLONE HETEROCYCLIC AROMATIC MOLECULES FOR CANCER TREATMENT” (RenoTarget Therapeutics, Inc., priority 2016, published 2019)", "experiment_in_all_cases": "KinaseSeeker competition binding assay", "key": {"[1]": {"target": "T1, TEC (Homo sapiens, UniProt P42680)", "T1 construct": "made in house; host or cells: cell-free, rabbit reticulocyte lysate", "description": "(§1) Compound Reno647 was profiled against the following panel of kinases at 2 μM using the KinaseSeeker™ assay: ABL1, AKT1, AKT2, AKT3, ALK, AURKA, AXL, BRAF, BTK, CDK2, CDK5, CDK7, CDK8, CSF1R, DDR1, EGFR del L747-P753 InsS, EGFR (L861Q), EGFR (G719S), EGFR, EGFR (L858R), EPHA2, EPHB2, FGFR3, FLT1/VEGFR1, FLT2/FGFR1, FLT3, FLT4/VEGFR3, GSK-3a, HER2, IGF1R, INSR, KIT, LIMK1, MET, MLK2/MAP3K10, RPS6KA5/MSK1, MUSK, p38a/MAPK12, PDGFRA, PDGFRB, PDK1, RET, RIPK2, RPS6KA1/RSK1, SRC, TEC, TESK1, TRKB, VEGFR2, and YES 1.\n(§2) KinaseSeeker is a homogeneous competition binding assay where the displacement of an active site dependent probe by an inhibitor is measured by a change in luminescence signal (see FIG. 7). Luminescence readout translates into a highly sensitive and robust assay with low background and minimal interference from test compounds.\n(§3) (Jester, Cox et al. 2010; Jester, Gaj et al. 2012): 10 mM stock of compound Reno647 was diluted in DMSO to a concentration of 50 μM. Prior to initiating a profiling campaign, the compound was evaluated for false positive against split-luciferase. The compound was then screened in duplicate against each of the kinases. For kinase assays, each Cfluc-Kinase was translated along with Fos-Nfluc using a cell-free system (rabbit reticulocyte lysate) at 30° C. for 90 min. A 24 μL aliquot of this lysate containing either 1 μL of DMSO (for no-inhibitor control) or compound solution in DMSO (2 LM final concentration) was incubated for 30 minutes at room temperature followed by 1 hour in the presence of a kinase specific probe. A 80 μL of luciferin assay reagent was added to each solution and luminescence was immediately measured on a luminometer.\n(§4) The % Inhibition and % Activity Remaining were calculated using the following equations:\n(§5) % inhibition=(ALUcontrol−ALUsample)×100\n(§6) % activity=100−% inhibition."}, "[2]": {"target": "T2, FLT3 (Homo sapiens, UniProt P36888)", "T2 construct": "made in house; host or cells: cell-free, rabbit reticulocyte lysate", "description": "as §1, §2, §3, §4, §5, §6"}, "[3]": {"target": "T3, AKT1 (Homo sapiens, UniProt P31749)", "T3 construct": "made in house; host or cells: cell-free system (rabbit reticulocyte lysate)", "description": "as §1, §2, §3, §4, §5, §6"}, "[4]": {"target": "T4, INSR (Homo sapiens, UniProt P06213)", "T4 construct": "made in house; host or cells: cell-free, rabbit reticulocyte lysate", "description": "as §1, §2, §3, §4, §5, §6"}, "[5]": {"target": "T5, ALK (Homo sapiens, UniProt Q9UM73)", "T5 construct": "made in house; host or cells: cell-free system (rabbit reticulocyte lysate)", "T5 sequence (Q9UM73 19-1620)": "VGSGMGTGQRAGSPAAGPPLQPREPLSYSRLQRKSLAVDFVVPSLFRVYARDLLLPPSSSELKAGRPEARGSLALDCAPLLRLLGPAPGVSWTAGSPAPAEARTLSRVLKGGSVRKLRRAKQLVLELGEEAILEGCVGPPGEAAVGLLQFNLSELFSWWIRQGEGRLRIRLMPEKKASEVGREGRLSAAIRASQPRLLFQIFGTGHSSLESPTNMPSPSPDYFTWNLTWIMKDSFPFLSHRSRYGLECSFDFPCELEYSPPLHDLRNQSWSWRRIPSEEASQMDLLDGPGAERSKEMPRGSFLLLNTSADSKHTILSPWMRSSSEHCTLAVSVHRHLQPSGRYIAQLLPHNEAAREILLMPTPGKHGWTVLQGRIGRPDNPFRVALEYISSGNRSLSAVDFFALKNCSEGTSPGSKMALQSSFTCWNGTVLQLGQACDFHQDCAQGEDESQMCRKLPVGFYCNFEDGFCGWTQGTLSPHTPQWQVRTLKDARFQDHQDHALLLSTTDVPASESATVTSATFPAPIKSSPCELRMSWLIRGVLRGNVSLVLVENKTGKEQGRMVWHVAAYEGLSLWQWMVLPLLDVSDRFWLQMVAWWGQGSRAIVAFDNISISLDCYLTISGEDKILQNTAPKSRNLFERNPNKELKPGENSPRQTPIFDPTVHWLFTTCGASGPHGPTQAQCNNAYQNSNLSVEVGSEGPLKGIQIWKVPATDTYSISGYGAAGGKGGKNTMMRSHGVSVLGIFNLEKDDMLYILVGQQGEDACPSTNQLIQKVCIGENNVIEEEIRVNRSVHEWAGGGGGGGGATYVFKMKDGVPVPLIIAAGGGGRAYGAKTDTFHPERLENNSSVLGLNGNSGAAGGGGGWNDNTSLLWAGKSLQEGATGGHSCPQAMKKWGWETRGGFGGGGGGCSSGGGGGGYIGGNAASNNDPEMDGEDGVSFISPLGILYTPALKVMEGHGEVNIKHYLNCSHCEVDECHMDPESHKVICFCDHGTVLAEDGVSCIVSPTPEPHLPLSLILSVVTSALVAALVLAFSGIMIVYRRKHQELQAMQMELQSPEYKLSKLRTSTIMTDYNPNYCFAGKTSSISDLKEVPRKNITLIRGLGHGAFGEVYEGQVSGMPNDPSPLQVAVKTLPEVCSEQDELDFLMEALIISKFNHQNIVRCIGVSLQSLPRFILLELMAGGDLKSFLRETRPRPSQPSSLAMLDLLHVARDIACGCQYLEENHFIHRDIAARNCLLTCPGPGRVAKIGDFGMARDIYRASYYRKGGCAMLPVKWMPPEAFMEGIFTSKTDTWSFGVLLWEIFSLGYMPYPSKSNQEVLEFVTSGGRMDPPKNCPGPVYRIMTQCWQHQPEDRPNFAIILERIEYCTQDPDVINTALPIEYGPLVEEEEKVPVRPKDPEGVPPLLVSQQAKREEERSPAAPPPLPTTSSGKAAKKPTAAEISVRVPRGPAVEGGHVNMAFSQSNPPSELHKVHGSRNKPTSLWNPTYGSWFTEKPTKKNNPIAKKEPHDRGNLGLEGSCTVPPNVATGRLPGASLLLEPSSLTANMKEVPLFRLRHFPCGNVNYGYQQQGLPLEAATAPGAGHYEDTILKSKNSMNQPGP", "description": "as §1, §2, §3, §4, §5, §6"}, "[6]": {"target": "T6, HER2 (Homo sapiens, UniProt P04626)", "T6 construct": "made in house; host or cells: cell-free, rabbit reticulocyte lysate", "description": "as §1, §2, §3, §4, §5, §6"}, "[7]": {"target": "T7, FGFR3 (Homo sapiens, UniProt P22607)", "T7 construct": "made in house; host or cells: cell-free system (rabbit reticulocyte lysate)", "description": "as §1, §2, §3, §4, §5, §6"}, "[8]": {"target": "T8, AKT2 (Homo sapiens, UniProt P31751)", "T8 construct": "made in house; host or cells: cell-free system (rabbit reticulocyte lysate)", "description": "as §1, §2, §3, §4, §5, §6"}, "[9]": {"target": "T9, SRC (Homo sapiens, UniProt P12931)", "T9 construct": "made in house; host or cells: cell-free, rabbit reticulocyte lysate", "description": "as §1, §2, §3, §4, §5, §6"}, "[10]": {"target": "T10, CDK8 (Homo sapiens, UniProt P49336)", "T10 construct": "made in house; host or cells: cell-free system (rabbit reticulocyte lysate)", "description": "as §1, §2, §3, §4, §5, §6"}, "[11]": {"target": "T11, EPHA2 (Homo sapiens, UniProt P29317)", "T11 construct": "made in house; host or cells: cell-free system (rabbit reticulocyte lysate)", "description": "as §1, §2, §3, §4, §5, §6"}, "[12]": {"target": "T12, GSK3A (Homo sapiens, UniProt P49840)", "T12 construct": "made in house; host or cells: cell-free, rabbit reticulocyte lysate", "description": "as §1, §2, §3, §4, §5, §6"}, "[13]": {"target": "T13, CDK5 (Homo sapiens, UniProt Q00535)", "T13 construct": "made in house; host or cells: cell-free system (rabbit reticulocyte lysate)", "description": "as §1, §2, §3, §4, §5, §6"}, "[14]": {"target": "T14, TRKB (Homo sapiens, UniProt Q16620)", "T14 construct": "made in house; host or cells: cell-free, rabbit reticulocyte lysate", "T14 sequence (Q16620 32-822)": "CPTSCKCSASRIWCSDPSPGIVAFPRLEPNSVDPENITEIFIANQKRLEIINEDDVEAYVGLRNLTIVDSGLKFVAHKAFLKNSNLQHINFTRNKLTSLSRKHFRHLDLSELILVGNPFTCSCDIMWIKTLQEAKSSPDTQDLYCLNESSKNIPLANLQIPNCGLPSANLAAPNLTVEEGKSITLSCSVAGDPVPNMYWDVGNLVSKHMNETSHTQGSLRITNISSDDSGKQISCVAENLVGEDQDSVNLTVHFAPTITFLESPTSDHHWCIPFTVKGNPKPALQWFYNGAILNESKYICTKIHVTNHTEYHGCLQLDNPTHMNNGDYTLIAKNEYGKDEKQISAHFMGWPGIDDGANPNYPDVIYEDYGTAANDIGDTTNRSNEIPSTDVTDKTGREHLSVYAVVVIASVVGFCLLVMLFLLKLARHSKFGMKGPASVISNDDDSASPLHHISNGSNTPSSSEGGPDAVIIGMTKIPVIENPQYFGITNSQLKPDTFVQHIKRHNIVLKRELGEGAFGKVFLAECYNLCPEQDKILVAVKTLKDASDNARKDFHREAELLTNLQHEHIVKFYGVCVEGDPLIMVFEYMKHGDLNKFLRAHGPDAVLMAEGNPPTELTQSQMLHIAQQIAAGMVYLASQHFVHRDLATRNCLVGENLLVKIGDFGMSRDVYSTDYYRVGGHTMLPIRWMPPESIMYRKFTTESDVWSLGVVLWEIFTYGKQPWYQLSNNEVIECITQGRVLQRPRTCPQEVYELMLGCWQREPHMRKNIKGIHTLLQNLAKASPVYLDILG", "description": "as §1, §2, §3, §4, §5, §6"}, "[15]": {"target": "T15, RET (Homo sapiens, UniProt P07949)", "T15 construct": "made in house; host or cells: cell-free, rabbit reticulocyte lysate", "T15 sequence (P07949 29-1114)": "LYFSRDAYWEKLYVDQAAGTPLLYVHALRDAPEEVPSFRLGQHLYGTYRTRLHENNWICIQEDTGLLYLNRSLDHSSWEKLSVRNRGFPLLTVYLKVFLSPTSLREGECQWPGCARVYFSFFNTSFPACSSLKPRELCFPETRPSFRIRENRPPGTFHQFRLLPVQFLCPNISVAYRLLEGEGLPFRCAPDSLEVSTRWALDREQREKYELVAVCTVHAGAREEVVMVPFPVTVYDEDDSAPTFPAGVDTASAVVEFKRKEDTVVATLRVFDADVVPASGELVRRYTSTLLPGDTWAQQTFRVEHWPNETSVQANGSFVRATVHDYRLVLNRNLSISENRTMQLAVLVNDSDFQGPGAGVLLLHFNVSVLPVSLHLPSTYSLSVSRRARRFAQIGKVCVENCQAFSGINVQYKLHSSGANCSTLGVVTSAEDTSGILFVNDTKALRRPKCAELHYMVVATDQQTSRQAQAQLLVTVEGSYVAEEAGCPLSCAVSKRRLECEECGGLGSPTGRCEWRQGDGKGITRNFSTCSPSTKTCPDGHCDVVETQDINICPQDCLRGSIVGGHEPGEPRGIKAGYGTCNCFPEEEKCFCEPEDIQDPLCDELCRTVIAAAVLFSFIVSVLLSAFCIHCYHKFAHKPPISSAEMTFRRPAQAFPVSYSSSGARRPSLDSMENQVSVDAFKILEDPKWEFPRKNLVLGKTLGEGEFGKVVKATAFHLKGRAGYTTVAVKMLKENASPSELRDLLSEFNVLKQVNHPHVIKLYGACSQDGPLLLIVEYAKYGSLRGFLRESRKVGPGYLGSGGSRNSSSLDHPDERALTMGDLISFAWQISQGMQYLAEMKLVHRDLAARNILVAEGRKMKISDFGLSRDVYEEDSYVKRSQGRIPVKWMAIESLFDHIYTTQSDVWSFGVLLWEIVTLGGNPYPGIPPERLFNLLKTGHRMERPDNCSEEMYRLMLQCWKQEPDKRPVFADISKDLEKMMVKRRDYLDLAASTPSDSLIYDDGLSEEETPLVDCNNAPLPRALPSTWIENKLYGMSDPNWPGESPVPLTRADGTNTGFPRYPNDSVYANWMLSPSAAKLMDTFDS", "description": "as §1, §2, §3, §4, §5, §6"}, "[16]": {"target": "T16, AKT3 (Homo sapiens, UniProt Q9Y243)", "T16 construct": "made in house; host or cells: cell-free system (rabbit reticulocyte lysate)", "T16 sequence (Q9Y243 whole entry)": "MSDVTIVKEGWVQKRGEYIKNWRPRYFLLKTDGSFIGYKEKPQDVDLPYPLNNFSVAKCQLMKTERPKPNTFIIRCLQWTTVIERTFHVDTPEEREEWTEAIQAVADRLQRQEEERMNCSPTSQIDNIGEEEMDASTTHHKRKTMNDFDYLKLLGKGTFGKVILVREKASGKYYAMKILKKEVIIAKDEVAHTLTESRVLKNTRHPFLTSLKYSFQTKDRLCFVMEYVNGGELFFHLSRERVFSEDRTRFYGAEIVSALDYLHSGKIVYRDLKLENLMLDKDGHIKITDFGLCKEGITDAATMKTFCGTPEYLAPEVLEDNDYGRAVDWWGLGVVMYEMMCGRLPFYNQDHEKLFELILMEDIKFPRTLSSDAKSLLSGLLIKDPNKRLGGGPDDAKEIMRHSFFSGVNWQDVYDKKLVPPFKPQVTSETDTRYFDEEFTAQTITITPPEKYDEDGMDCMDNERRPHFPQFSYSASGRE", "description": "as §1, §2, §3, §4, §5, §6"}, "[17]": {"target": "T17, BTK (Homo sapiens, UniProt Q06187)", "T17 construct": "made in house; host or cells: cell-free system (rabbit reticulocyte lysate)", "description": "as §1, §2, §3, §4, §5, §6"}, "[18]": {"target": "T18, KIT-KD (Homo sapiens, UniProt P10721)", "T18 construct": "KIT-KD; made in house; host or cells: cell-free, rabbit reticulocyte lysate", "description": "as §1, §2, §3, §4, §5, §6"}, "[19]": {"target": "T19, MET (Homo sapiens, UniProt P08581)", "T19 construct": "made in house; host or cells: cell-free, rabbit reticulocyte lysate", "description": "as §1, §2, §3, §4, §5, §6"}, "[20]": {"target": "T20, PDGFRB (Homo sapiens, UniProt P09619)", "T20 construct": "made in house; host or cells: cell-free, rabbit reticulocyte lysate", "T20 sequence (P09619 33-1106)": "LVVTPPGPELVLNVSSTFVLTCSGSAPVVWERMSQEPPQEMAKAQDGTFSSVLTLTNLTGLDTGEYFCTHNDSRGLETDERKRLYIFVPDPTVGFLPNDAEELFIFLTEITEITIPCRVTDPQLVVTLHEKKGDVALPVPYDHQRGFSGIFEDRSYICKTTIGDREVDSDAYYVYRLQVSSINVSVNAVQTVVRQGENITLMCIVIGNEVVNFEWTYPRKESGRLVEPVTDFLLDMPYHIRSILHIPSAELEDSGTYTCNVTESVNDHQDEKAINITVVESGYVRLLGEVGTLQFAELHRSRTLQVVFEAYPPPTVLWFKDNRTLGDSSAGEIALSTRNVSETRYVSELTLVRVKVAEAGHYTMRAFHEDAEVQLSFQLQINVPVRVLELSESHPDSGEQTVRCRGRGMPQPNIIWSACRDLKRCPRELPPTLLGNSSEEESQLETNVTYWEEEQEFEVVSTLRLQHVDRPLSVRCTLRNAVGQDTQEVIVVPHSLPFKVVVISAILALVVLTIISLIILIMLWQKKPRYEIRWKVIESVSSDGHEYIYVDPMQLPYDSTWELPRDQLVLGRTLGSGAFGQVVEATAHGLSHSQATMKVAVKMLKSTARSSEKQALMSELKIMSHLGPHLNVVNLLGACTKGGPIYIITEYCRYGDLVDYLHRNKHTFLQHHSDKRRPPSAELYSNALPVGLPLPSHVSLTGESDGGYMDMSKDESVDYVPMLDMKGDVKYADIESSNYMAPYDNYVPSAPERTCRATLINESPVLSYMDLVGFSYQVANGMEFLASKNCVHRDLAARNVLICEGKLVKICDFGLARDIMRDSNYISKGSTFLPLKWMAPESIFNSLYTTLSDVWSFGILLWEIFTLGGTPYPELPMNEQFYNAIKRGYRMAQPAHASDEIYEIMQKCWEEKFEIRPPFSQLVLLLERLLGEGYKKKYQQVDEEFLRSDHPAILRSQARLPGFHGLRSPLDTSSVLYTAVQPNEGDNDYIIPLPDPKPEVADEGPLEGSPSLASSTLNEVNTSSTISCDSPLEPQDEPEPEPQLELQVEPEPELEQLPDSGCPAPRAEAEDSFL", "description": "as §1, §2, §3, §4, §5, §6"}, "[21]": {"target": "T21, LIMK1 (Homo sapiens, UniProt P53667)", "T21 construct": "made in house; host or cells: cell-free, rabbit reticulocyte lysate", "description": "as §1, §2, §3, §4, §5, §6"}, "[22]": {"target": "T22, ABL1 (Homo sapiens, UniProt P00519)", "T22 construct": "made in house; host or cells: cell-free system (rabbit reticulocyte lysate)", "description": "as §1, §2, §3, §4, §5, §6"}, "[23]": {"target": "T23, TESK1 (Homo sapiens, UniProt Q15569)", "T23 construct": "made in house; host or cells: cell-free, rabbit reticulocyte lysate", "description": "as §1, §2, §3, §4, §5, §6"}, "[24]": {"target": "T24, CDK2 - Cyclin E1 (Homo sapiens, UniProt P24941)", "T24 construct": "made in house; host or cells: cell-free system (rabbit reticulocyte lysate)", "description": "as §1, §2, §3, §4, §5, §6"}, "[25]": {"target": "T25, AXL (Homo sapiens, UniProt P30530)", "T25 construct": "made in house; host or cells: cell-free system (rabbit reticulocyte lysate)", "description": "as §1, §2, §3, §4, §5, §6"}, "[26]": {"target": "T26, FLT1 (Homo sapiens, UniProt P17948)", "T26 construct": "made in house; host or cells: cell-free system (rabbit reticulocyte lysate)", "description": "as §1, §2, §3, §4, §5, §6"}, "[27]": {"target": "T27, YES1 (Homo sapiens, UniProt P07947)", "T27 construct": "made in house; host or cells: cell-free, rabbit reticulocyte lysate", "description": "as §1, §2, §3, §4, §5, §6"}, "[28]": {"target": "T28, EPHB2 (Homo sapiens, UniProt P29323)", "T28 construct": "made in house; host or cells: cell-free system (rabbit reticulocyte lysate)", "description": "as §1, §2, §3, §4, §5, §6"}, "[29]": {"target": "T29, FLT4 (Homo sapiens, UniProt P35916)", "T29 construct": "made in house; host or cells: cell-free, rabbit reticulocyte lysate", "description": "as §1, §2, §3, §4, §5, §6"}}}
{"compound": "C#Cc1cccc(Nc2ncnc3cc(OCCOC)c(NC(=O)c4ccc(F)c([N+](=O)[O-])c4)cc23)c1", "note": "[Reno647, 4-Fluoro-N-[4-(3-ethynyl-phenylamino)-7-(2-methoxy-ethoxy)-quinazolin-6-yl]-3-nitro-benzamide]", "values": [{"measurement": "remaining binding at 2 µM", "setting": "[1]", "value": 97.4, "unit": "%"}, {"measurement": "remaining binding at 2 µM", "setting": "[2]", "value": 100, "unit": "%"}, {"measurement": "remaining binding at 2 µM", "setting": "[3]", "value": 96.8, "unit": "%"}, {"measurement": "remaining binding at 2 µM", "setting": "[4]", "value": 84.6, "unit": "%"}, {"measurement": "remaining binding at 2 µM", "setting": "[5]", "value": 92.1, "unit": "%"}, {"measurement": "remaining binding at 2 µM", "setting": "[6]", "value": 100, "unit": "%"}, {"measurement": "remaining binding at 2 µM", "setting": "[7]", "value": 98.9, "unit": "%"}, {"measurement": "remaining binding at 2 µM", "setting": "[8]", "value": 100, "unit": "%"}, {"measurement": "remaining binding at 2 µM", "setting": "[9]", "value": 84.9, "unit": "%"}, {"measurement": "remaining binding at 2 µM", "setting": "[10]", "value": 92.3, "unit": "%"}, {"measurement": "remaining binding at 2 µM", "setting": "[11]", "value": 100, "unit": "%"}, {"measurement": "remaining binding at 2 µM", "setting": "[12]", "value": 100, "unit": "%"}, {"measurement": "remaining binding at 2 µM", "setting": "[13]", "value": 99.5, "unit": "%"}, {"measurement": "remaining binding at 2 µM", "setting": "[14]", "value": 88.4, "unit": "%"}, {"measurement": "remaining binding at 2 µM", "setting": "[15]", "value": 100, "unit": "%"}, {"measurement": "remaining binding at 2 µM", "setting": "[16]", "value": 100, "unit": "%"}, {"measurement": "remaining binding at 2 µM", "setting": "[17]", "value": 93.1, "unit": "%"}, {"measurement": "remaining binding at 2 µM", "setting": "[18]", "value": 90, "unit": "%"}, {"measurement": "remaining binding at 2 µM", "setting": "[19]", "value": 100, "unit": "%"}, {"measurement": "remaining binding at 2 µM", "setting": "[20]", "value": 76.6, "unit": "%"}, {"measurement": "remaining binding at 2 µM", "setting": "[21]", "value": 100, "unit": "%"}, {"measurement": "remaining binding at 2 µM", "setting": "[22]", "value": 100, "unit": "%"}, {"measurement": "remaining binding at 2 µM", "setting": "[23]", "value": 100, "unit": "%"}, {"measurement": "remaining binding at 2 µM", "setting": "[24]", "value": 100, "unit": "%"}, {"measurement": "remaining binding at 2 µM", "setting": "[25]", "value": 73.2, "unit": "%"}, {"measurement": "remaining binding at 2 µM", "setting": "[26]", "value": 80.5, "unit": "%"}, {"measurement": "remaining binding at 2 µM", "setting": "[27]", "value": 87.1, "unit": "%"}, {"measurement": "remaining binding at 2 µM", "setting": "[28]", "value": 100, "unit": "%"}, {"measurement": "remaining binding at 2 µM", "setting": "[29]", "value": 79.8, "unit": "%"}]}
